System: term pregnant, nulliparous women with an unripe cervix
Assay: Clinical phase II trial PPL17 (Parts A and B), subcutaneous tafoxiparin vs placebo
Assay type: in vivo, human
Conditions: for women achieving spontaneous onset of labor (FIG. 1): placebo 28.7%; for number of subjects (women) that reach spontaneous onset of labor / subjects (women) that reach spontaneous onset of labor, % of n: cumulative
Procedure: A clinical phase II trial is performed as a randomized, double-blind, placebo-controlled, parallel-group proof of concept study (Part A) with a conditional dose finding follow up study (Part B) to evaluate the efficacy, safety, tolerability and dose response of subcutaneously administered tafoxiparin as a supplement to induction therapy in term pregnant, nulliparous women with an unripe cervix. The study is performed in Sweden and Finland (PPL17), and an EMA (European Medicines Agency) description of the study can be found on the EU Clinical Trials Register web (www.clinicaltrialsregister.eu/ctr-search/search?query=PPL17).
A total of 170 term pregnant women are randomized to receive either 300 mg of tafoxiparin, or corresponding placebo (vehicle), administered subcutaneously every 24±3 hours and up to a total of 7 doses, or until partus (Part A).
In the dose finding follow up study (Part B), a total of 164 term pregnant women are randomized to receive either 75 or 150 mg of tafoxiparin administered subcutaneously every 24±3 hours […] and up to a total of 7 doses, or until partus.
To assess the efficacy of tafoxiparin on cervical ripening/cervical ripening rate, during and up to the first seven days of treatment, measured by Bishop score. All women must be examined to check the cervical state before enrollment.
Tafoxiparin/Placebo is supplied by Dilafor AB to the site as kits designed to constitute 300 mg of tafoxiparin or placebo for daily administration. Apart from the active substance, each ml of study drug will constitute 0.015 M phosphate buffer. The study medication kit for each patient will contain 8 doses consisting of 2 vials containing a minimum extractable volume of 1.6 ml of 150 mg/ml of tafoxiparin or placebo. One dose is a reserve dose in case a dose is rendered unusable. The investigational product should be administered subcutaneously every 24±3 hours by the site staff for up to 7 doses, or until partus. At each dosing time 1.0 ml of the drug will be extracted from each of the 2 vials and injected as separate s.c. injections in the abdominal or hip region.
Tafoxiparin/Placebo is supplied by Dilafor AB to the site as kits designed to constitute 75 or 150 mg of tafoxiparin for daily administration. Apart from the active substance, each ml of study drug will constitute 0.015 M phosphate buffer. The study medication kit for each patient will contain 8 doses consisting of 2 vials for each injection occasion containing a minimum extractable volume of 1.6 ml of 150 mg/ml of tafoxiparin or placebo. For subjects receiving 75 mg of tafoxiparin, one vial will contain active substance and one containing placebo. For subjects receiving 150 mg of tafoxiparin, both vials will contain active substance. One dose is a reserve dose in case a dose is rendered unusable. The investigational product should be administered subcutaneously every 24±3 hours by the site staff for up to 7 doses, or until partus. At each dosing time, 0.5 ml of the drug will be extracted from each of the 2 vials and injected as separate s.c. injections in the abdominal or hip region.
If the subject is found to be eligible for the study, they will be randomized to study treatment, i.e. 300 mg of tafoxiparin or corresponding placebo daily (Part A), or 75 or 150 mg daily (Part B).
The study medication will be administered subcutaneously in the abdominal or hip region for up to a total of 7 doses or until labor induction or spontaneous onset of labor. If the cervix is still unripe after 7 doses of IMP, the patient is given cervical balloon catheter as a mean of labor induction.
Subjects who enter into spontaneous onset of labor after 1-7 doses of IMP should be managed according to clinical routines.
Subjects who are given 4-7 doses without entering into spontaneous onset of labor, but with a ripe cervix (Bishop Score ≥6), should be induced into labor by amniotomy and oxytocin treatment, but not before 4 treatment doses have been given. […]

Substance: tafoxiparin
- women achieving spontaneous onset of labor (FIG. 1) (75 mg s.c. once daily up to 7 doses, 33 women of 82, p-value 0.102): 40.2%
- women reaching spontaneous onset of labor with uncomplicated delivery (75 mg, 22 of the 29 women, placebo 54.5%): 75.9%
- number of subjects (women) that reach spontaneous onset of labor (75 mg, Study day 1, n = 33): 0
- subjects (women) that reach spontaneous onset of labor, % of n (75 mg, Study day 1, n = 33): (0%)
- number of subjects (women) that reach spontaneous onset of labor (75 mg, Study day 2, n = 33): 3
- subjects (women) that reach spontaneous onset of labor, % of n (75 mg, Study day 2, n = 33): (9%)
- number of subjects (women) that reach spontaneous onset of labor (75 mg, Study day 3, n = 33): 6
- subjects (women) that reach spontaneous onset of labor, % of n (75 mg, Study day 3, n = 33): (18%)
- number of subjects (women) that reach spontaneous onset of labor (75 mg, Study day 4, n = 33): 11
- subjects (women) that reach spontaneous onset of labor, % of n (75 mg, Study day 4, n = 33): (33%)
- number of subjects (women) that reach spontaneous onset of labor (75 mg, Study day 5, n = 33): 22
- subjects (women) that reach spontaneous onset of labor, % of n (75 mg, Study day 5, n = 33): (67%)
- number of subjects (women) that reach spontaneous onset of labor (75 mg, Study day 6, n = 33): 25
- subjects (women) that reach spontaneous onset of labor, % of n (75 mg, Study day 6, n = 33): (76%)
- number of subjects (women) that reach spontaneous onset of labor (75 mg, Study day 7, n = 33): 32
- subjects (women) that reach spontaneous onset of labor, % of n (75 mg, Study day 7, n = 33): (97%)
- number of subjects (women) that reach spontaneous onset of labor (75 mg, Study day 8, n = 33): 33
- subjects (women) that reach spontaneous onset of labor, % of n (75 mg, Study day 8, n = 33): (100%)
- Fetal distress as indication for operative delivery (ODFD), number of women (75 mg, n = 83): 16
- Labor induced with PGE-1, number of women (75 mg, n = 83): 7
- Labor induced with amniotomy, number of women (75 mg, n = 83): 46
- Labor induced with oxytocin, number of women (75 mg, n = 83): 34
- Labor induced, number of women (75 mg, n = 83): 48
- Labor induction with Balloon catheter, number of women (75 mg, n = 83): 35
- Number of patients with operative delivery (75 mg, n = 83): 32
- Labor induced with PGE-1, % of women (75 mg, n = 83, placebo 10.2%): 8.4%
- Fetal distress as indication for operative delivery (ODFD), % of women (75 mg, n = 83, placebo 22.7%): 19.3%
- patients with operative delivery, % (75 mg, n = 83, placebo 45.5%): 38.6%
- Labor induced with oxytocin, % of women (75 mg, n = 83, placebo 54.5%): 41.0%
- Labor induced with amniotomy, % of women (75 mg, n = 83, placebo 56.8%): 55.4%
- Labor induction with Balloon catheter, % of women (75 mg, n = 83, placebo 58.0%): 42.2%
- Labor induced, % of women (75 mg, n = 83, placebo 70.5%): 57.8%
- women needing instrumental delivery (FIG. 4, vaginal mode of partus) (75 mg, women with spontaneous onset of labor, 7 of the 29 women, p-value=0.181, placebo 45.5%): 24.1%
- women needing instrumental delivery or caesarian section to reach partus (FIG. 5) (75 mg, women with spontaneous onset of labor, 11 of 33 women, placebo 52%): 33.3%
- women reaching partus by vaginal delivery with no need for instrumental delivery nor caesarian section (FIG. 5) (75 mg, women with spontaneous onset of labor, 22 of 33 women, placebo 48%): 66.7%
- women achieving spontaneous onset of labor (FIG. 1) (150 mg s.c. once daily up to 7 doses, 36 women of 85, p-value 0.039): 42.4%
- women reaching spontaneous onset of labor with uncomplicated delivery (150 mg, 23 of the 32 women, placebo 54.5%): 71.9%
- number of subjects (women) that reach spontaneous onset of labor (150 mg, Study day 1, n = 36): 0
- subjects (women) that reach spontaneous onset of labor, % of n (150 mg, Study day 1, n = 36): (0%)
- number of subjects (women) that reach spontaneous onset of labor (150 mg, Study day 2, n = 36): 4
- subjects (women) that reach spontaneous onset of labor, % of n (150 mg, Study day 2, n = 36): (11%)
- number of subjects (women) that reach spontaneous onset of labor (150 mg, Study day 3, n = 36): 15
- subjects (women) that reach spontaneous onset of labor, % of n (150 mg, Study day 3, n = 36): (42%)
- number of subjects (women) that reach spontaneous onset of labor (150 mg, Study day 4, n = 36): 19
- subjects (women) that reach spontaneous onset of labor, % of n (150 mg, Study day 4, n = 36): (53%)
- number of subjects (women) that reach spontaneous onset of labor (150 mg, Study day 5, n = 36): 26
- subjects (women) that reach spontaneous onset of labor, % of n (150 mg, Study day 5, n = 36): (72%)
- number of subjects (women) that reach spontaneous onset of labor (150 mg, Study day 6, n = 36): 30
- subjects (women) that reach spontaneous onset of labor, % of n (150 mg, Study day 6, n = 36): (83%)
- number of subjects (women) that reach spontaneous onset of labor (150 mg, Study day 7, n = 36): 34
- subjects (women) that reach spontaneous onset of labor, % of n (150 mg, Study day 7, n = 36): (94%)
- number of subjects (women) that reach spontaneous onset of labor (150 mg, Study day 8, n = 36): 35
- subjects (women) that reach spontaneous onset of labor, % of n (150 mg, Study day 8, n = 36): (97%)
- number of subjects (women) that reach spontaneous onset of labor (150 mg, Study day 9, n = 36): 36
- subjects (women) that reach spontaneous onset of labor, % of n (150 mg, Study day 9, n = 36): (100%)
- Fetal distress as indication for operative delivery (ODFD), number of women (150 mg, n = 85): 20
- Labor induced with PGE-1, number of women (150 mg, n = 85): 7
- Labor induced with amniotomy, number of women (150 mg, n = 85): 39
